Measured values published in US20070037835A1, “Pharmaceutical composition comprising a cathepsin s inhibitor and an opioid” (priority 2003, published 2007).
Where a name gives a salt, the structure may show the parent alone.

Assays:
[1] = test system: established mechanical hyperalgesia; assay: Chronic neuropathic pain model (Seltzer, partial ligation of the sciatic nerve), paw withdrawal threshold; assay type: in vivo, Wistar rats; details: mean ± s.e.m.
Excerpt: Hyperalgesia is examined in the model of neuropathic pain induced by partial ligation of the sciatic nerve as described by Seltzer et al. (1990). Briefly, Wistar rats (120-140 g) are anaesthetised, the left sciatic nerve exposed at mid-thigh level through a small incision and ⅓ to ½ of the nerve thickness tightly ligated within a 7.0 silk suture. The wound is closed with a single muscle suture and skin clips and dusted with Aureomycin antibiotic powder. The animals are allowed to recover and used 12-15 days following surgery. Mechanical hyperalgesia is assessed by measuring paw withdrawal thresholds to an increasing pressure stimulus placed onto the dorsal surface of the paw using an analgesy-meter (Ugo-Basile, Milan) with a cut-off of 250 g. Withdrawal thresholds are measured on both the ipsilateral (ligated) and contralateral (unligated) paw prior to (predose) and then up to 6 h following drug or vehicle administration. Data are expressed as withdrawal threshold (g) and percentage reversal of hyperalgesia calculated according to the following formula: [formula]
Potency is expressed as D50 value, i.e. the dose of the single compound or a COMBINATION OF THE INVENTION necessary to produce 50% reversal of hyperalgesia.
Paw withdrawal thresholds are measured prior to drug treatment (predose) and then at 0.5, 1, 3 and 6 hours following concomitant administration of morphine subcutaneously and the cathepsin inhibitor of formula II orally. Each time point represents data from 6 animals per group. Vehicle is 0.5% methylcellulose, 1 ml p.o./0.9% saline s.c. Statistical analysis is performed on raw data (paw withdrawal thresholds).
Statistical significance, *† P<0.05 by Analysis of variance followed by Dunnett's test.

[2] = test system: neuropathic rat nociceptive threshold; assay: Naloxone blockade of anti-hyperalgesic effect in neuropathic rats; assay type: in vivo

CC(C)(C)CCn1c(Cc2ccc(Cl)cc2)cc2cnc(C#N)nc21 [Inhibitor]
% Reversal of Predose Hyperalgesia ([1]; Inhibitor 10 mg/kg p.o., 0.5 h post-dose): 30.3 ± 5.8% | % Reversal of Predose Hyperalgesia ([1]; Inhibitor 10 mg/kg p.o., 1 h post-dose): 22.8 ± 4.6% | % Reversal of Predose Hyperalgesia ([1]; Inhibitor 30 mg/kg, 0.5 h post-dose): 46.7 ± 11.4% | % Reversal of Predose Hyperalgesia ([1]; Inhibitor 30 mg/kg, 1 h post-dose): 54.7 ± 7.1%

CN1CC[C@]23c4c5ccc(O)c4O[C@H]2[C@@H](O)C=C[C@H]3[C@H]1C5 [Morphine, morphine]
% Reversal of Predose Hyperalgesia ([1]; Morphine 1 mg/kg s.c., 0.5 h post-dose): 4.4 ± 2.8% | % Reversal of Predose Hyperalgesia ([1]; Morphine 1 mg/kg s.c., 1 h post-dose): 6.5 ± 2.9%

C=CCN1CC[C@]23c4c5ccc(O)c4O[C@H]2C(=O)CC[C@@]3(O)[C@H]1C5 [Naloxone hydrochloride]
effect on neuropathic rat nociceptive threshold ([2]; naloxone alone, 0.1 mg/kg): devoid of any effect | effect on the anti-hyperalgesic effect induced by the compound of formula II ([2]; neuropathic rats, naloxone 0.1 mg/kg): blocks the anti-hyperalgesic effect
